Measured values from ChEMBL document CHEMBL1132681, “Inhibition of human cytomegalovirus protease by enedione derivatives of thieno[2,3-d]oxazinones through a novel dual acylation/alkylation mechanism” (Bioorg Med Chem Lett, 1999).

Columns and labels:
[1] = molecular target: T1, Capsid scaffolding protein (Human cytomegalovirus (strain AD169) (HHV-5) (Human herpesvirus 5), UniProt P16753); assay: Inhibitory activity against cytomegalovirus protease (CMV); format: functional
T1 sequence (P16753 whole entry): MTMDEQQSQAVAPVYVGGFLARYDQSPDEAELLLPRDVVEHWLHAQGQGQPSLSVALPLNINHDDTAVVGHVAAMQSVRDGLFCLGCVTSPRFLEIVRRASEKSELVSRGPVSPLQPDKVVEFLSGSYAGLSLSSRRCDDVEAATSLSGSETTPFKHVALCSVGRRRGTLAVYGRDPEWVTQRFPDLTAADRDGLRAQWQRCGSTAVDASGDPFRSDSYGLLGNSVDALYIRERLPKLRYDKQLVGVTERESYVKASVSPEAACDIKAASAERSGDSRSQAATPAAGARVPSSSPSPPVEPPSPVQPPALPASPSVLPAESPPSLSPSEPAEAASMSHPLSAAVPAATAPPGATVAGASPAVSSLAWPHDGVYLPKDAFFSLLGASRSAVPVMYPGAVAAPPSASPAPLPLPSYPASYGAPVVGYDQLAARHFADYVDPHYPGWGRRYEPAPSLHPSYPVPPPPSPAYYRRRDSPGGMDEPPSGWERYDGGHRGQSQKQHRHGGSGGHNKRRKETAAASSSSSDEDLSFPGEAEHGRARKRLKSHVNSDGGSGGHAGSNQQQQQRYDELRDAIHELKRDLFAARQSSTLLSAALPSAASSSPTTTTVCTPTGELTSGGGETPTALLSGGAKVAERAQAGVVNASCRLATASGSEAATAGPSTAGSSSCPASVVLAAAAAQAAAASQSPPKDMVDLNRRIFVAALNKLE

[2] = molecular target: T2, Capsid scaffolding protein (Human herpesvirus 2 (strain HG52) (HHV-2) (Human herpes simplex virus2), UniProt P89449); assay: Inhibitory activity against herpes simplex virus protease (HSV-2); format: functional, Human alphaherpesvirus 2
T2 sequence (P89449 whole entry): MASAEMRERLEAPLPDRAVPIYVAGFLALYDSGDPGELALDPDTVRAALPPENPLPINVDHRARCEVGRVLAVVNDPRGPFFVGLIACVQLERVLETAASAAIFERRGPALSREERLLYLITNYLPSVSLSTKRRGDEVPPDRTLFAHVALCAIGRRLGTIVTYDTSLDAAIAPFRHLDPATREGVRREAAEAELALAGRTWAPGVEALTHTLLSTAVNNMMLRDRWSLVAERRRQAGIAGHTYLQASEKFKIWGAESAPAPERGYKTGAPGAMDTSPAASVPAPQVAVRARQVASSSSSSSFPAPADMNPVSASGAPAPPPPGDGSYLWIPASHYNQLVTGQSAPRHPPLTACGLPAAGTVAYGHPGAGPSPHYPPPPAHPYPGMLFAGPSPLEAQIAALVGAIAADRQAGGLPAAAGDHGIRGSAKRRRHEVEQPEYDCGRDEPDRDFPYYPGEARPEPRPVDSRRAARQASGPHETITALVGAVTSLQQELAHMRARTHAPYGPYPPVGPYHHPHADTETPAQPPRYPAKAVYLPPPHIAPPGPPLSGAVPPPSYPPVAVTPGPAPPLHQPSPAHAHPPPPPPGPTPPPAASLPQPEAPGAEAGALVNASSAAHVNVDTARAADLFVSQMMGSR

[3] = tested on: MRC5; assay: Compound was tested for cytotoxicity in MRC-5 cells using XTT assay; format: functional; conditions: Homo sapiens, read-out: TC50 (the source's name)

SMILES	IC50 [1]	IC50 [2]	CC50 [3]
CC(=O)/C=C/C(=O)N[C@@H](C)c1nc2scc(C)c2c(=O)o1	370 nM	790 nM	11000 nM
Cc1csc2nc([C@H](C)NC(=O)CCC(=O)c3cccs3)oc(=O)c12	19000 nM	4700 nM	–
Cc1csc2nc([C@H](C)NC(=O)/C=C/C(=O)c3ccc(Cl)cc3)oc(=O)c12	60 nM	15000 nM	–
COc1cccc(C(=O)/C=C/C(=O)N[C@@H](C)c2nc3scc(C)c3c(=O)o2)c1	29 nM	680 nM	–
CCOc1ccc(C(=O)/C=C/C(=O)N[C@@H](C)c2nc3scc(C)c3c(=O)o2)cc1	260 nM	16000 nM	–
Cc1csc2nc([C@H](C)NC(=O)/C=C/C(=O)c3cccc(C#N)c3)oc(=O)c12	41 nM	2000 nM	–
Cc1csc2nc([C@H](C)NC(=O)/C=C/C(=O)c3ccccc3)oc(=O)c12	30 nM	2700 nM	14000 nM
Cc1csc2nc([C@H](C)NC(=O)/C=C/C(=O)c3cccc([N+](=O)[O-])c3)oc(=O)c12	31 nM	3000 nM	–
Cc1csc2nc([C@H](C)NC(=O)/C=C/C(=O)c3cccs3)oc(=O)c12	29 nM	4600 nM	2000 nM
Cc1csc2nc([C@H](C)NC(=O)/C=C/C(=O)Nc3ccccc3)oc(=O)c12	2300 nM	2600 nM	–
Cc1csc2nc([C@H](C)NC(=O)CCC(=O)c3ccccc3)oc(=O)c12	21000 nM	12000 nM	–
Cc1csc2nc([C@H](C)NC(=O)/C=C/C(=O)c3ccccc3[N+](=O)[O-])oc(=O)c12	14 nM	2200 nM	–
